Target: T1, bovine liver catalase (BLC) (Bos taurus, UniProt P00432)
T1 construct: gene CAT
T1 sequence (P00432 2-527): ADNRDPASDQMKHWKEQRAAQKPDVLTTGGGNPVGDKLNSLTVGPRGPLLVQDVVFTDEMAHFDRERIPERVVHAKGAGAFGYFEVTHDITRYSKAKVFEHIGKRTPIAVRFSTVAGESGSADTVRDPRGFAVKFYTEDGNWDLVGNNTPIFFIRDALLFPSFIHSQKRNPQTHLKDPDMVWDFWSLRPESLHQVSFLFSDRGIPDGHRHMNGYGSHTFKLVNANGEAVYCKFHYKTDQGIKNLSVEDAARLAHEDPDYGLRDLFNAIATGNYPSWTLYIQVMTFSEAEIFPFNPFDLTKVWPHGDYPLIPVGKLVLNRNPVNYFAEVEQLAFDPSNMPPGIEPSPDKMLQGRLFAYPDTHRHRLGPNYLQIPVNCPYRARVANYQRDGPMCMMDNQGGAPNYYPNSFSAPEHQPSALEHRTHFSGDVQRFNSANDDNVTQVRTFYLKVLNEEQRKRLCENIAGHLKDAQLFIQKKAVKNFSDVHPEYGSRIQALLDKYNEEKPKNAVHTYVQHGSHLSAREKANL
Test: UV kinetics of H2O2 decomposition at […] nm, Lineweaver-Burk (IC50 about […]); supported by fluorescence quenching, UV-vis and ATR-FTIR
Type: biochemical

## O=C1C=C(O)C(=O)c2ccccc21 [LAW, 2-hydroxy-1,4-naphtoquinone]
  Ki: 15.8 µM

Reference: PMC7462507, “Noncompetitive Inhibition of Bovine Liver Catalase by Lawsone: Kinetics, Binding Mechanism and in silico Modeling Approaches” (Iranian Journal of Pharmaceutical Research : IJPR, 2020)
